For orientation: inhibition means the drop in the measured response relative to a control, in per cent.

What all share (experiment): Kinase panel study
Type in all cases: biochemical
What all share (conditions): read-out: Percentage of inhibition; for inhibition at 1 µM: 1000nM; for inhibition at 10 µM: 10000nM

The target of one assay is T1, ABL1 T315I (Homo sapiens, UniProt P00519, T315I).
T1 construct: purchased Thermo Fisher Scientific
In short, it runs like this: (§1)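 Inhibition was measured in an outsourced in vitro kinase panel using the ZLyte or Adapta format under the provider's standard procedures. Values are percent inhibition at 10 µM or 1 µM compound, and IC50s were also obtained.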

A further assay deals with T2, CAMK1 (CaMK1) (Homo sapiens, UniProt Q14012).
T2 construct: purchased Thermo Fisher Scientific
In short, it runs like this:
as §1

A further assay addresses T3, CSNK2A1 (CK2 alpha 1) (Homo sapiens, UniProt P68400).
T3 construct: purchased Thermo Fisher Scientific
In short, it runs like this:
as §1

In the next assay the target is T4, FGFR3 (Homo sapiens, UniProt P22607).
T4 construct: purchased Thermo Fisher Scientific
T4 sequence (P22607 23-806): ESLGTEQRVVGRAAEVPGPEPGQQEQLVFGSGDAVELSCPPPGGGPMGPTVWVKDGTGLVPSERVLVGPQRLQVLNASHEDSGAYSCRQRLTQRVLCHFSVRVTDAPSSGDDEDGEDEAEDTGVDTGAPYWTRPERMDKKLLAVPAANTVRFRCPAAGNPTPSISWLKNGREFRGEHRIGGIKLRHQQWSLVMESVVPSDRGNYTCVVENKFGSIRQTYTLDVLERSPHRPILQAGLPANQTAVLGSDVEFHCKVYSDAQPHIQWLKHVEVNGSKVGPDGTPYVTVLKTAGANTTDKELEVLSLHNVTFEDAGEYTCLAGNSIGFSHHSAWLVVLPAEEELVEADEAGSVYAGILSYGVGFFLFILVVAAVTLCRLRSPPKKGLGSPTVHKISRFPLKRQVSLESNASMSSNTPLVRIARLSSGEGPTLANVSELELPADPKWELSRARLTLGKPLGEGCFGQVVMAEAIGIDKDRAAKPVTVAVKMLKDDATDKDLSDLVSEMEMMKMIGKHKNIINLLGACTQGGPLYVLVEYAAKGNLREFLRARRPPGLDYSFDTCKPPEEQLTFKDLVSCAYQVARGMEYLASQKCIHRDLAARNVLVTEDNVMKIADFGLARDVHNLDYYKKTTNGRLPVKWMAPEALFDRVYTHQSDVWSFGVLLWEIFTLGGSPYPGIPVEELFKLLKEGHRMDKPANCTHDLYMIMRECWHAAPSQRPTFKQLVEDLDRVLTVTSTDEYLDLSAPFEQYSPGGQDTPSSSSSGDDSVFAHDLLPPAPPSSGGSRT
In short, it runs like this:
as §1

Another assay has as its target T5, FGFR3 V555M (Homo sapiens, UniProt P22607, V555M).
T5 construct: purchased Thermo Fisher Scientific
In short, it runs like this: as §1

Another assay concerns the target T6, FGR (Homo sapiens, UniProt P09769).
T6 construct: purchased Thermo Fisher Scientific
In short, it runs like this: as §1

Another assay has as its target T7, MAP3K19 (YSK4) (Homo sapiens, UniProt Q56UN5).
T7 construct: purchased Thermo Fisher Scientific
T7 sequence (Q56UN5 1-1328): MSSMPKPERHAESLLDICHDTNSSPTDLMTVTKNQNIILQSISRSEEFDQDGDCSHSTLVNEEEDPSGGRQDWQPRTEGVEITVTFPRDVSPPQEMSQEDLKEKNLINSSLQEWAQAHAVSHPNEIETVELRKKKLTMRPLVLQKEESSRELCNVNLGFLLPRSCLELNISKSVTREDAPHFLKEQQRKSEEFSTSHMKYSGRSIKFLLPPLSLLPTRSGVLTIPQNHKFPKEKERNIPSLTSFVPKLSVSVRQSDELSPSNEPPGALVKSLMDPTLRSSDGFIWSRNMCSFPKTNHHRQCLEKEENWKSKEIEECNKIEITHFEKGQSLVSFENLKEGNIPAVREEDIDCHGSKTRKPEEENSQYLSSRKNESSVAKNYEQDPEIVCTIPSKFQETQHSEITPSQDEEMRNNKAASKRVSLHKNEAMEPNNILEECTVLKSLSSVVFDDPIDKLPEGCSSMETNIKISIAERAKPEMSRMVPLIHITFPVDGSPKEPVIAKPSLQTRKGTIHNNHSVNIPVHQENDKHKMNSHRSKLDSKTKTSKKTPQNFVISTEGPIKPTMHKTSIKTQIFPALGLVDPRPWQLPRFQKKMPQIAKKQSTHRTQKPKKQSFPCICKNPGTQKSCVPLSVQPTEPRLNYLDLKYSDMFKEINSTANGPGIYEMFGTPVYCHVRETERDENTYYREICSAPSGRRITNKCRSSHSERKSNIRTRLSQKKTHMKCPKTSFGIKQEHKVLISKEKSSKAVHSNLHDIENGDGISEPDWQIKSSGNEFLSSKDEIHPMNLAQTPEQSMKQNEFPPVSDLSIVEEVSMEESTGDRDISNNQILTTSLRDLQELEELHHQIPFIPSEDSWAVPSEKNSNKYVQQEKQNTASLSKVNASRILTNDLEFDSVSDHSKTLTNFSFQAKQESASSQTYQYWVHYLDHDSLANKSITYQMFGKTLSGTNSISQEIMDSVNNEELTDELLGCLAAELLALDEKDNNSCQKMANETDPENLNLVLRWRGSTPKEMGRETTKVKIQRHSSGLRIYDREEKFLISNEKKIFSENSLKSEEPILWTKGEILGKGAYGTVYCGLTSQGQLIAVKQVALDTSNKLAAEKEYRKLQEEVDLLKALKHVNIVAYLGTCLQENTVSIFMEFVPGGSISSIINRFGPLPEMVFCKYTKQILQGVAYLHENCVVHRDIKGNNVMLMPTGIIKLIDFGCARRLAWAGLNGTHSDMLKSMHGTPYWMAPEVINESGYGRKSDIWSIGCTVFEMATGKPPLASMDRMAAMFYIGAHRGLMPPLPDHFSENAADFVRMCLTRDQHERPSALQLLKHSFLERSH
In short, it runs like this: as §1

The target in a further assay is T8, MAP4K5 (KHS1) (Homo sapiens, UniProt Q9Y4K4).
T8 construct: purchased Thermo Fisher Scientific
T8 sequence (Q9Y4K4 whole entry): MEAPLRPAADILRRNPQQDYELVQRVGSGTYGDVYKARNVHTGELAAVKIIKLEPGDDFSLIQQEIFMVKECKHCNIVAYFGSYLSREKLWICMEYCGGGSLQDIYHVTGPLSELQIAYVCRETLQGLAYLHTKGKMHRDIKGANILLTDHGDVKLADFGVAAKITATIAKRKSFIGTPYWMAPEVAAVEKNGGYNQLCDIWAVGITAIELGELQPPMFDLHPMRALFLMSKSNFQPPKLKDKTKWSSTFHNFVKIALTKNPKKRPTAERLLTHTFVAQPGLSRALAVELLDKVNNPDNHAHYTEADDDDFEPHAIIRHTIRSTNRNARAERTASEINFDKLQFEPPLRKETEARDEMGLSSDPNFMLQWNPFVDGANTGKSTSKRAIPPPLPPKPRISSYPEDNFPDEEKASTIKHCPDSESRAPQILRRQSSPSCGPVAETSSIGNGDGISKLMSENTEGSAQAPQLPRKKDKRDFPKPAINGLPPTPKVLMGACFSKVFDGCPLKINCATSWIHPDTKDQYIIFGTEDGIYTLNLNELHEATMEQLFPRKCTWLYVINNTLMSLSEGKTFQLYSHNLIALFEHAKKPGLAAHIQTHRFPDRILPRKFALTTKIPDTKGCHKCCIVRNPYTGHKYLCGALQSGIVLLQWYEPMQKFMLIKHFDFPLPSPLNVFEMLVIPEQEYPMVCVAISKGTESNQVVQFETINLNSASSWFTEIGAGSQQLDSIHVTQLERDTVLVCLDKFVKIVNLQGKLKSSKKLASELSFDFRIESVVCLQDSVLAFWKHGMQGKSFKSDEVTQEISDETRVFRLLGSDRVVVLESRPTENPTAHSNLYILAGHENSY
In short, it runs like this: as §1

In a further assay the target is T9, MST1R (RON) (Homo sapiens, UniProt Q04912).
T9 construct: purchased Thermo Fisher Scientific
T9 sequence (Q04912 25-1400): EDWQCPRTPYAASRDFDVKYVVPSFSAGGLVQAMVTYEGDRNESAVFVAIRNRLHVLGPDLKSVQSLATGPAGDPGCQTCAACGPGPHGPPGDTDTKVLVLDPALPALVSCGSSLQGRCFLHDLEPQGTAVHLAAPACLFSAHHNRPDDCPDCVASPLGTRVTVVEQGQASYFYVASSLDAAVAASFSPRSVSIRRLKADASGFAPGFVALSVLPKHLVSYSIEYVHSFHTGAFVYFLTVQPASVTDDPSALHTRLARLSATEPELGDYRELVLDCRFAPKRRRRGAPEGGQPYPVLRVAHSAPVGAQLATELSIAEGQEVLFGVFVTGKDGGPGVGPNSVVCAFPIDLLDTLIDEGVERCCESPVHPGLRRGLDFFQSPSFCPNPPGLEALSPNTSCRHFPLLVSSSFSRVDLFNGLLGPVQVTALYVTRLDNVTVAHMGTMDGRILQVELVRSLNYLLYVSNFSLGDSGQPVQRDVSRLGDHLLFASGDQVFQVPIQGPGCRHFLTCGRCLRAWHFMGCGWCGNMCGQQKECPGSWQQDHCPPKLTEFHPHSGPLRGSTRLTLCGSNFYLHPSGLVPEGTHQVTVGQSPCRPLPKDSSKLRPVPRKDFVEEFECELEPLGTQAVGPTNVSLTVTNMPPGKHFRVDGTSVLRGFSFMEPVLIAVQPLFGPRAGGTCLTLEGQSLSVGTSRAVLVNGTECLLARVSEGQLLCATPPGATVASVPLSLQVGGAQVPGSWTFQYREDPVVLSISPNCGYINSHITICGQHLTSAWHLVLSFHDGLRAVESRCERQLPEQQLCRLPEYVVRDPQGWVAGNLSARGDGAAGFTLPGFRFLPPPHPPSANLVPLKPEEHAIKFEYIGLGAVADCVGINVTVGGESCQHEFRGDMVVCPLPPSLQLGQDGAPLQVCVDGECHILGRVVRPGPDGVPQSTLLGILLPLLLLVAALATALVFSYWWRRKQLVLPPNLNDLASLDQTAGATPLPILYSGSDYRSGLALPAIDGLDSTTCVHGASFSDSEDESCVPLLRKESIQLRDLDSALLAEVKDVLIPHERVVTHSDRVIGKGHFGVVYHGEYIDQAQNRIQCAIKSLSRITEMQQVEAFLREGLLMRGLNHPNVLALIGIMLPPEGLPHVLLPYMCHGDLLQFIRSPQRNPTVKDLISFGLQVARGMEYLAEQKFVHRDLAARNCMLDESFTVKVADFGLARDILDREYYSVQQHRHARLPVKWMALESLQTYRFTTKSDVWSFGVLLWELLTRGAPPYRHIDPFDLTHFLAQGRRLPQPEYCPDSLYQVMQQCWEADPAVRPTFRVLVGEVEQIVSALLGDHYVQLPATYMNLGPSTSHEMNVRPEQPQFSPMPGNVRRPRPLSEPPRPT
In short, it runs like this:
as §1

In a further assay the target is T10, RET (Homo sapiens, UniProt P07949).
T10 construct: purchased Thermo Fisher Scientific
T10 sequence (P07949 29-1114): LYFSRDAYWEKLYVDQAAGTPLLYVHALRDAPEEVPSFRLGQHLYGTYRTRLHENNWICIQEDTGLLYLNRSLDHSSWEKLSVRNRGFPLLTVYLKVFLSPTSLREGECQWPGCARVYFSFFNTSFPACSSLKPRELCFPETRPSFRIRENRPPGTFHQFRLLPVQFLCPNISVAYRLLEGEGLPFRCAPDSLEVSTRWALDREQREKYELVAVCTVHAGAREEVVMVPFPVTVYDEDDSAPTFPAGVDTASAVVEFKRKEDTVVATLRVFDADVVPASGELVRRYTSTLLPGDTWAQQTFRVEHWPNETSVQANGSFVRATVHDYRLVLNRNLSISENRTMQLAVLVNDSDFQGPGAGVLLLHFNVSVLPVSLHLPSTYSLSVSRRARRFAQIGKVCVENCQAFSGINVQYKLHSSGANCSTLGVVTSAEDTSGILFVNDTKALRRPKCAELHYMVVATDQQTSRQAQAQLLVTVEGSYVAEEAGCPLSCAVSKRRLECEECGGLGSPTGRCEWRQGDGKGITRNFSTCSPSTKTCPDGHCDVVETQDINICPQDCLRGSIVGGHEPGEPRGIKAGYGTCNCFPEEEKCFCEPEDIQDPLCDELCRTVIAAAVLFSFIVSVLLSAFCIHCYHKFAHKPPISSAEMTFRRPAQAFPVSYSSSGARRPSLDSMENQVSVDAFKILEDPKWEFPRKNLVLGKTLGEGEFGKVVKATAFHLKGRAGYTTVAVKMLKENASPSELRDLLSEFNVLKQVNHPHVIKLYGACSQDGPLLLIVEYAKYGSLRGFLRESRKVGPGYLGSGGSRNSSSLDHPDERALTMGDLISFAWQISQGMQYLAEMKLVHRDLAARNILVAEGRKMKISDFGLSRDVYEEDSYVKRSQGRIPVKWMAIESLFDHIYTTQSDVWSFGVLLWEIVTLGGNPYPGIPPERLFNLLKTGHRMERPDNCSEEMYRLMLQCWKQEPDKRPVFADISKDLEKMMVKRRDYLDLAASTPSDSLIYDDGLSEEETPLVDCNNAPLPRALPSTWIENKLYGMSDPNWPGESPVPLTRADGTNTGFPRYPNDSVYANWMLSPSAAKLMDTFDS
In short, it runs like this: as §1

T6 sequence (P09769 whole entry): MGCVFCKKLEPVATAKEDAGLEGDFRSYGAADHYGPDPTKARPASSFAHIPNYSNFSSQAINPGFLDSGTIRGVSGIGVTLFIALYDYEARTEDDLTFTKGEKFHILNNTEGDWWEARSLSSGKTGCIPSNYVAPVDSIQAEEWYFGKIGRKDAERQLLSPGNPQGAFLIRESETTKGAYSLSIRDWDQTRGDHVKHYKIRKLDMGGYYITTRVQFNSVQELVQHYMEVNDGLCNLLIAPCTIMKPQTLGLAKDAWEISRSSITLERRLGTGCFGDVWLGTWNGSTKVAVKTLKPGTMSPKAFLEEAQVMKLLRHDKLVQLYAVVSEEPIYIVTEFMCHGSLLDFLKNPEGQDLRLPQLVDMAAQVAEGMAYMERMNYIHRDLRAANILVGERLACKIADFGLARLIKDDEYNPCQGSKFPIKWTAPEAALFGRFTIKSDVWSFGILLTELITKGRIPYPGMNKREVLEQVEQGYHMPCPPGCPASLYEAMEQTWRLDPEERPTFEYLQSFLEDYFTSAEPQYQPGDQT
T5 sequence (P22607 23-806 V555M): as the sequence (P22607 23-806) above, with V533M counted along it
T3 sequence (P68400 whole entry): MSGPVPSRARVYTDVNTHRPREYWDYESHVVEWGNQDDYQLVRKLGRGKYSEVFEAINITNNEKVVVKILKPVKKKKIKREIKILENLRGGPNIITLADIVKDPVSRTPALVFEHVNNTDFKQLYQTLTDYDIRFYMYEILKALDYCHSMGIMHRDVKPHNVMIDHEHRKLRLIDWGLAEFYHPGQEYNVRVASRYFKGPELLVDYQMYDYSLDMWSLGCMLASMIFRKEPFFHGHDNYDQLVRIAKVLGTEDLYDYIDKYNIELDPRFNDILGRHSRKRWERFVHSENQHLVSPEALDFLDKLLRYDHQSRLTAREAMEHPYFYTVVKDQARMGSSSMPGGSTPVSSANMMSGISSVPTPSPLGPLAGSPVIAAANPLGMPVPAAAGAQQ

With `COc1ccc2c(c1OC)c(=O)n1c3ccc(O)cc3c3ccnc2c31` [MW01, 5-Hydroxy-10,11-dimethoxy-9H-benzo[c]indolo[3,2,1-ij][1,5]naphthyridin-9-one], the inhibition at 1 µM is 9% on ABL1 T315I; -12% on CAMK1 (CaMK1); 9% on CSNK2A1 (CK2 alpha 1); 4% on FGFR3; 5% at FGFR3 V555M; 10% on FGR. Besides, the inhibition at 1 µM at MAP3K19 (YSK4) stood at 4%; at MAP4K5 (KHS1), 39%; at MST1R (RON), 22%; on RET, 15%. The inhibition at 10 µM on ABL1 T315I was 34%; on CAMK1 (CaMK1), -2%; on CSNK2A1 (CK2 alpha 1), 18%; on FGFR3, 8%; at FGFR3 V555M, 11%; at FGR, 26%. In addition, the inhibition at 10 µM on MAP3K19 (YSK4) came to 17%; at MAP4K5 (KHS1) it was 68%; at MST1R (RON) it was 39%; at RET it was 34%.

For `COc1ccc2cc3c(N)nn(C(=O)c4cccc(N(C)C)c4)c3nc2c1` [MW05, (3-Amino-7-methoxypyrazolo[3,4-b]quinolin-1-yl)-[3-(dimethylamino)phenyl]methanone], the inhibition at 1 µM on ABL1 T315I is 8%; on CAMK1 (CaMK1), -11%; at CSNK2A1 (CK2 alpha 1), 9%; on FGFR3, 1%; on FGFR3 V555M, -30%; on FGR it was 5%. Further, the inhibition at 1 µM at MAP3K19 (YSK4) was -3%; at MAP4K5 (KHS1), 15%; at MST1R (RON) it was -1%; on RET, 9%. Also, the inhibition at 10 µM was 5% on ABL1 T315I; -5% on CAMK1 (CaMK1); 5% at CSNK2A1 (CK2 alpha 1); -8% on FGFR3; -9% at FGFR3 V555M; 15% on FGR. The inhibition at 10 µM at MAP3K19 (YSK4) is -5%; on MAP4K5 (KHS1), 4%; on MST1R (RON) it was -16%; at RET, 12%.
